For orientation: IC50 means the point on the concentration scale where inhibition reaches its midpoint. The low end stands for greater potency in that assay, the high end for weaker potency in that assay.

The record followed here is patent US7851501B2, “Aromatic nitrocatechol compounds and their use for modulating processes mediated by cell adhesion molecules” (Revotar Biopharmaceuticals AG, priority 2005, dated 2010).

The target of assay [1] is T1, human E-Selectin-IgG-chimera (Homo sapiens, UniProt P16581). Briefly: Flow chamber assay, cell adhesion and rolling under flow conditions, E-selectin. The note with it: 125 μM compound; HL-60 cells; flow shear 1 dyne/cm^2; after 5 minutes continuous flow. In kind it is cell-based. As to the method: (§1) Values are given as normalized ratios of %-inhibition of compound x divided by %-inhibition of bimosiamose.
(§2) Flow Chamber Assay/Cell Adhesion and Rolling Under Flow Conditions
(§3) To assess the capability of compounds to inhibit cell binding under dynamic conditions resembling the flow in a blood vessel, flow chamber assays addressing/testing binding of HL-60 cells/various cell lines to P-selectin, L-selectin and E-selectin chimeric molecules are performed.
(§4) Cell attachment under flow conditions are determined using a parallel flow chamber system. A 35 mm polystyrene culture dish is coated for 1 hour at room temperature with coating buffer (50 mM tris-(hydroxymethyl)aminomethane buffer (Tris), 150 mM NaCl, 2 mM CaCl2; pH 7.4) containing human E- or P-selectin-IgG chimera at concentrations of 2.5 μg/ml or 10 μg/ml, respectively. After removal of the coating solution non specific binding sites are blocked for an additional hour with 1% BSA in coating buffer at room temperature. After washing with assay buffer (“Roswell Park Memorial Institute 1640” (RPMI 1640)+10 mM HEPES) the dish is fitted into a parallel plate laminar flow chamber (sold from Glycotech, Rockville, Md.) and mounted on an inverted phase-contrast microscope (sold from Olympus, Hamburg, Germany) equipped with a CCD camera (JVC) that is connected to a PC. Employing a peristaltic pump (sold from Ismatec, Wertheim-Mondfeld, Germany) the re-circulating system is equilibrated with assay buffer containing 125 μM compound or vehicle control (DMSO). Cells (1 million/ml) are added to the chamber and allowed to distribute for 2 minutes at a high flow rate. The flow rate is then decreased resulting in a calculated flow shear of 1 dyne/cm^2. Video sequences of 10 low power fields are digitally recorded after 5 minutes continuous flow. The percentage of inhibition is calculated from the mean number of cells per field that attached to the coated dish surface in the presence versus absence of compound […].

In assay [2] the target is T2, human P-Selectin-IgG-chimera (Homo sapiens, UniProt P16109). Briefly: Flow chamber assay, cell adhesion and rolling under flow conditions, P-selectin. In kind it is cell-based. Conditions: 125 μM compound; HL-60 cells; flow shear 1 dyne/cm^2; after 5 minutes continuous flow. The procedure:
as §1, §2, §3, §4

Assay [3] deals with T2, human P-Selectin-IgG-chimera. Description: Sialyl Lewis x Tyrosine Sulfate Assay (sLex TSA), P-selectin. The note with it: inhibition of binding of sLex-tyrosine sulfate polyacrylamide ligand complex. The procedure: (§5) Compounds of the present invention are assayed on a molecular level for their ability to inhibit the binding of P-, L-, or E-selectin chimeric molecules to sLe^x and tyrosinesulfate residues linked to a polymeric matrix as a PSGL-1 substitute. Selected IC50-values are determined.
(§6) Microtiter plates are coated overnight in carbonate buffer pH9.6 with goat anti human Fc mAB (10 μg/ml). After washing in assay buffer (25 mM 4-(2-hydroxyethyl)-1-piperazineethanesulfonic acid (HEPES), 150 mM NaCl, 1 mM CaCl2 pH7.4) and blocking (3% bovine serum albumin (BSA) in assay buffer) plates are incubated for 2 h at 37° C. with human P-Selectin-IgG-chimera (0.61 nM respectively 150 ng/mL) or human L-Selectin-IgG-chimera (0.61 nM respectively 89 ng/mL) or human E-Selectin-IgG-chimera (0.61 nM respectively 131 ng/mL). 5 μl of sLe^x-tyrosine sulfate polyacrylamide (1 mg/ml) carrying 15% sLe^x, 10% Tyrosine-sulfate and 5% biotin is complexed with […] Streptavidin-Peroxidase solution (1 mg/ml) and 25 μl assay buffer without CaCl2. For use in the assay, the ligand complex is diluted 1:10000 in assay buffer and further diluted 1:1 with varying amounts of compounds in assay buffer incl. 2% DMSO. This mixture is added to the wells precoated with E- or P-selectin. After incubation for 2 h at 37° C., wells are washed for six times with in assay buffer incl. 0.005% Polyoxyethylenesorbitan monolaurate (TWEEN 20), developed for 10-15 min with 20 μl 3,3′,5,5′-tetramethylbenzidine (TMB)/H2O2 substrate solution and stopped with 20 μl 1M H2SO4. Bound sLe^x-Tyrosine sulfate ligand complex is determined by measuring optical density at 450 nm vs. 620 nm in a Fusion alpha-FP reader (sold from Packard Bioscience, Dreieich, Germany).

Assay [4] concerns the target human L-Selectin-IgG-chimera (Homo sapiens, UniProt P14151). Briefly: Sialyl Lewis x Tyrosine Sulfate Assay (sLex TSA), L-selectin. Conditions: inhibition of binding of sLex-tyrosine sulfate polyacrylamide ligand complex. The procedure: as §5, §6
In assay [5] the target is T1, human E-Selectin-IgG-chimera. Description: Sialyl Lewis x Tyrosine Sulfate Assay (sLex TSA), E-selectin. Conditions: inhibition of binding of sLex-tyrosine sulfate polyacrylamide ligand complex. As to the method:
as §5
as §6, with “This mixture is added to the wells precoated with E- or P-selectin. After incubation for 2 h at 37° C., wells are washed for six times with in assay buffer incl. 0.005% Polyoxyethylenesorbitan monolaurate (TWEEN 20), developed for 10-15 min with 20 μl 3,3′,5,5′-tetramethylbenzidine (TMB)/H2O2 substrate solution and stopped with 20 μl 1M H2SO4.” left out

human L-Selectin-IgG-chimera, sequence (P14151 with tags, fused parts or gaps limits assumed): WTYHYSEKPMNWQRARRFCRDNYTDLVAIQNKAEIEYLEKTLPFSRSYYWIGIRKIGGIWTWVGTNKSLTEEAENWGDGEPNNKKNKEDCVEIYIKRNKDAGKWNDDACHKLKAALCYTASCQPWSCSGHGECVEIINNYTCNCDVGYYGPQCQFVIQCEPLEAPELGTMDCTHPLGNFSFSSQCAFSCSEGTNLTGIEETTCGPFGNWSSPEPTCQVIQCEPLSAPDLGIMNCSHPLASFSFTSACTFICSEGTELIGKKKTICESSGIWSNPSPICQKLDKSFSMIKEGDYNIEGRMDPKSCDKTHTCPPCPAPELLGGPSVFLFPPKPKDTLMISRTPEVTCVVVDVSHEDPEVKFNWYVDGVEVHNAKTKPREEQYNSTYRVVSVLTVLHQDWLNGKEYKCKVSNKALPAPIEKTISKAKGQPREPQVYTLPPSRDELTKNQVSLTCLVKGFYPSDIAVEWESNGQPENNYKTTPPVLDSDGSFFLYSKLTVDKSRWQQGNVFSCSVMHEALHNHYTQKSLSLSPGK
T1 sequence (P16581 with tags, fused parts or gaps limits assumed): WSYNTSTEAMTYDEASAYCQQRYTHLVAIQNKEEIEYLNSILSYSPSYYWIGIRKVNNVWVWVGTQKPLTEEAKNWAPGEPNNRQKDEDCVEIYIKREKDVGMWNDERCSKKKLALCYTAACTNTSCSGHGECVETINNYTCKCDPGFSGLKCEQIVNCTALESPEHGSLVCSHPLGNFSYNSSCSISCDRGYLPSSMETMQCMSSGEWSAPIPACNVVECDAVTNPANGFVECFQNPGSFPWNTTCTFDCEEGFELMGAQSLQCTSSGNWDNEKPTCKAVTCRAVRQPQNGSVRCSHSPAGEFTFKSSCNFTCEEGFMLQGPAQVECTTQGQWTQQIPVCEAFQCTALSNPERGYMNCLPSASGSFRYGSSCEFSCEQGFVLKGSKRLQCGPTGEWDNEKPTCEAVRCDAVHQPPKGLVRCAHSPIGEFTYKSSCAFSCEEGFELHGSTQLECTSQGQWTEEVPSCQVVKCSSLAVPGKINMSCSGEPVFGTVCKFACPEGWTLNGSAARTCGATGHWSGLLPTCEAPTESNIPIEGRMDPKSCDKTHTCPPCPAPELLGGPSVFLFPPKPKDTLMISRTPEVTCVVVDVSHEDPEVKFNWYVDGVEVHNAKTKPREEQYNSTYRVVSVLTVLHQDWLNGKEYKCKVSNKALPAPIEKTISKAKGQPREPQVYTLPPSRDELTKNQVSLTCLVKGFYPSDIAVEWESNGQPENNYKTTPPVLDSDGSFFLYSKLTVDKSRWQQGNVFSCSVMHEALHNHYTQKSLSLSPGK
T2 sequence (P16109 with tags, fused parts or gaps limits assumed): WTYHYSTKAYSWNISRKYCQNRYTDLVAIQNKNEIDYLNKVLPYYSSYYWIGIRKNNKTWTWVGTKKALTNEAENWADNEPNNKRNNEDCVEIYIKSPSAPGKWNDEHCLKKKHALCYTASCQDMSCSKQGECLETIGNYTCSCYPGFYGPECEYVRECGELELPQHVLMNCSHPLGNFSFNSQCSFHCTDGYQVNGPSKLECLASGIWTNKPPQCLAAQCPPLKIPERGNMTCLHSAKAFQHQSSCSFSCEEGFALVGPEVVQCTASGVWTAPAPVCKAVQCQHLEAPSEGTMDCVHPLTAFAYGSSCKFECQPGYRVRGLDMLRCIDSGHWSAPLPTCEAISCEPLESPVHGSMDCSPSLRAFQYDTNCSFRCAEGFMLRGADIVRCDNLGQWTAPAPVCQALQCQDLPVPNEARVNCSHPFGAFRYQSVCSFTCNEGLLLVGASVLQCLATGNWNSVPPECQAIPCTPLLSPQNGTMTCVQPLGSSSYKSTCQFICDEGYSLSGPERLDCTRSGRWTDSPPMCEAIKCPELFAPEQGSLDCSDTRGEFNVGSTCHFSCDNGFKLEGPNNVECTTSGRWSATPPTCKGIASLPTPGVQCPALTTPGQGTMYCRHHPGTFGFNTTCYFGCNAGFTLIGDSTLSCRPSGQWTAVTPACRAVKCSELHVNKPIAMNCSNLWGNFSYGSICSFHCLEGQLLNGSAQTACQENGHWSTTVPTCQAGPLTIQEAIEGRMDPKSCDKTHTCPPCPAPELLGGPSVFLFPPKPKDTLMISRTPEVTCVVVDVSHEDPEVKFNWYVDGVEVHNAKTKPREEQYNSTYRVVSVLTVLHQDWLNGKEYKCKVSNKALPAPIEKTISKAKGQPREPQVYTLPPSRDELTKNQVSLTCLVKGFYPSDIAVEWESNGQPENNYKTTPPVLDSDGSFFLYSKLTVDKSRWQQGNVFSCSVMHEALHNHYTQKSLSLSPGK

Turning to `O=C(O)Cc1ccc(-c2ccccc2NC(=O)Cc2cc(O)c(O)cc2[N+](=O)[O-])s1` [Compound 110, (5-{2-[2-(4,5-Dihydroxy-2-nitro-phenyl)-acetylamino]-phenyl}-thiophen-2-yl)-acetic acid], the “E-Selectin normalized ratio of %-inhibition of compound divided by %-inhibition of bimosiamose” value in assay [1] worked out at 1.00 Ratio. Also, in assay [2], the “P-Selectin normalized ratio of %-inhibition of compound divided by %-inhibition of bimosiamose” value came to 1.26 Ratio.
The like results for `Cc1oc(-c2ccc(NC(=O)c3cccc(-c4cc(O)c(O)cc4[N+](=O)[O-])c3)cc2)cc1C(=O)O` [Compound 113, 2-Methyl-5-{4-[(2′-nitro-4′,5′-dihydroxy-biphenyl-3-carbonyl)-amino]-phenyl}-furan-3-carboxylic acid] were, in that order, 1.37 Ratio and 1.30 Ratio.
Regarding `O=C(O)Cc1ccc(-c2ccccc2NC(=O)c2cccc(-c3cc([N+](=O)[O-])cc(O)c3O)c2)s1` [Compound 116, (5-{2-[(2′,3′-Dihydroxy-5′-nitro-biphenyl-3-carbonyl)-amino]-phenyl}-thiophen-2-yl)-acetic acid], the “E-Selectin normalized ratio of %-inhibition of compound divided by %-inhibition of bimosiamose” value in assay [1] is on record as 1.23 Ratio. In addition, the values for the half-maximal inhibitory concentration (IC50) in assay [3], in assay [4] and in assay [5] were 5.2 µM, 8.7 µM and 308 µM, respectively. In addition, the “P-Selectin normalized ratio of %-inhibition of compound divided by %-inhibition of bimosiamose” value in assay [2] came to 1.32 Ratio.
`O=C(Nc1ccccc1)c1cccc(-c2cc(O)c(O)cc2[N+](=O)[O-])c1` [Compound 117, 4′,5′-Dihydroxy-2′-nitro-biphenyl-3-carboxylic acid phenylamide]: the “E-Selectin normalized ratio of %-inhibition of compound divided by %-inhibition of bimosiamose” value in assay [1] is reported as “n.s”. The “P-Selectin normalized ratio of %-inhibition of compound divided by %-inhibition of bimosiamose” value in assay [2] is recorded as 0.83 Ratio.
As to `O=C(O)Cc1ccc(-c2ccccc2NC(=O)c2cccc(-c3cc(O)c(O)cc3[N+](=O)[O-])c2)s1` [Compound 118, (5-{2-[(4′,5′-Dihydroxy-2′-nitro-biphenyl-3-carbonyl)-amino]-phenyl}-thiophen-2-yl)-acetic acid], the “E-Selectin normalized ratio of %-inhibition of compound divided by %-inhibition of bimosiamose” value in assay [1] stood at 0.84 Ratio. In addition, the half-maximal inhibitory concentration (IC50) worked out at 19.2 µM in assay [3] and 39.2 µM in assay [4]. In addition, the “P-Selectin normalized ratio of %-inhibition of compound divided by %-inhibition of bimosiamose” value in assay [2] came to 1.19 Ratio.
`O=C(Nc1ccccc1-c1ccc(C(=O)O)s1)c1cccc(-c2cc(O)c(O)cc2[N+](=O)[O-])c1` [Compound 119, 5-{2-[(4′,5′-Dihydroxy-2′-nitro-biphenyl-3-carbonyl)-amino]-phenyl}-thiophene-2-carboxylic acid]: the “E-Selectin normalized ratio of %-inhibition of compound divided by %-inhibition of bimosiamose” value in assay [1] turned out to be 0.86 Ratio. For the same compound, the results for the IC50 in assay [3], in assay [4] and in assay [5] were 11 µM, 17.1 µM and 272 µM, respectively. For the same compound, the “P-Selectin normalized ratio of %-inhibition of compound divided by %-inhibition of bimosiamose” value in assay [2] was determined as 1.67 Ratio.
For the compound `O=C(Nc1ccccc1-c1ccc(C(=O)O)s1)c1cccc(-c2cc([N+](=O)[O-])cc(O)c2O)c1` [Compound 120, 5-{2-[(2′-3′-Dihydroxy-5′-nitro-biphenyl-3-carbonyl)-amino]-phenyl}-thiophene-2-carboxylic acid], in assay [1], the “E-Selectin normalized ratio of %-inhibition of compound divided by %-inhibition of bimosiamose” value was found to be 1.01 Ratio. For the same compound, the values for the IC50 in assay [3] and in assay [4] were 4.6 µM and 6.6 µM, respectively. The “P-Selectin normalized ratio of %-inhibition of compound divided by %-inhibition of bimosiamose” value in assay [2] turned out to be 1.72 Ratio.
As to `O=C(O)Cc1ccc(-c2ccccc2NC(=O)Cc2cc(O)c(O)c([N+](=O)[O-])c2)s1` [Compound 121, (5-{2-[2-(3,4-Dihydroxy-5-nitro-phenyl)-acetylamino]-phenyl}-thiophen-2-yl)-acetic acid], in assay [1], the “E-Selectin normalized ratio of %-inhibition of compound divided by %-inhibition of bimosiamose” value stood at 0.98 Ratio. In addition, the “P-Selectin normalized ratio of %-inhibition of compound divided by %-inhibition of bimosiamose” value in assay [2] came to 0.89 Ratio.
